Assay results published in patent US12479866B2, “Boron-containing rho kinase inhibitors” (Percipiad, Inc., priority 2019, dated 2025).

Assays:
[1] = tested on: New Zealand White rabbits; experiment: Phenol-induced chronic model of glaucoma, IOP; type: in vivo, rabbit
Description: For these efficacy studies methods were followed as described in (Jacob et al, A promising drug candidate for the treatment of glaucoma based on a P2Y6-receptor agonist, Purinergic Signal. 2018 September; 14 (3): 271-284). In all studies, male New Zealand White rabbits were acclimatized for one week before the study. Animals were given food and water ad libitum. Body weights of rabbits ranged from 2 to 3 kg. Animals were trained for the IOP measurement procedure during the acclimation period in order to reduce stress and obtaining more accurate measurements during the study. IOP measurements were taken using the Icare® TONOVET Plus tonometer. […] The technique of use of the […] tonometer in rabbits was described previously (Gloe et al, Validation of the Icare® TONOVET Plus Rebound Tonometer in Normal Rabbit Eyes, Exp Eye Res. 2019 August; 185:107698). IOP readings are obtained only when the tonometer is held an appropriate distance and in the correct plane relative to the ocular surface. Green light appears when the orientation is correct, thereby minimizing operator errors. […] IOP was measured daily after phenol injection and IOP doubled in 8 days after phenol injection. […] IOP readings were taken on mornings of days 8 to 12 before compound application and 0.5 and 1 hour after morning application. […]

primary hTM cells = experiment: RealTime-Glo MT cell viability assay in hTM cells; type: cell-based; conditions: all concentrations and time points (24 h, 48 h, 72 h)
Description: Commercially available RealTime-Glo™ MT cell viability (Promega, catalog #G9712) and CellTox™ Green cytotoxicity (Promega, catalog #G8731) assays were used in assessing effect of compounds on primary hTM cell viability and cytotoxicity. The RealTime-Glo™ MT cell viability assay is a nonlytic, homogeneous, bioluminescent method that determines the number of viable cells in culture by measuring the reducing potential of cells and thus metabolism (MT). Viable cells reduce the proprietary pro-substrate to generate a substrate for NanoLuc® luciferase. This substrate diffuses from cells into the surrounding culture medium, where it is rapidly used by the NanoLuc® Enzyme to produce a luminescent signal. In a contrasting and complementary manner, CellTox™ Green cytotoxicity assay measures changes in membrane integrity that occur as a result of cell death. This assay system uses a proprietary asymmetric cyanine dye that is excluded from viable cells but preferentially stains the dead cells' DNA. The fluorescent signal produced by the dye binding to the dead-cell DNA is proportional to cytotoxicity.
Human™ cells were cultured and maintained as described in Example 12. Fifty μl cells (600 cells) in culture media containing compound, 25 μl media with RealTime-Glo™ MT cell viability assay reagent and 25 μl media with CellTox™ Green cytotoxicity assay reagent were plated in black, clear bottom 96-well plates. Light emitted by luciferase and fluorescence emitted by dye binding to DNA (excitation 485 nm and emission 525 nm) were measured at 24 h, 48 h, and 72 h after incubation using plate based luminescence and fluorescence plate readers.

[2] = tested on: New Zealand White rabbits; experiment: Sodium hyaluronate-induced acute ocular hypertension, IOP; type: in vivo, rabbit
Description: In all studies, male New Zealand White rabbits were acclimatized for one week before the study. Animals were given food and water ad libitum. Body weights of rabbits ranged from 2 to 3 kg. Animals were trained for the IOP measurement procedure during the acclimation period in order to reduce stress and obtaining more accurate measurements during the study. IOP measurements were taken using the Icare® TONOVET Plus tonometer. […] IOP readings are obtained only when the tonometer is held an appropriate distance and in the correct plane relative to the ocular surface. Green light appears when the orientation is correct, thereby minimizing operator errors. Measurements were performed at the same time of day by the same person using the same instrument. Sodium hyaluronate-induced acute ocular hypertension study. Sodium hyaluronate injection into the anterior chamber of rabbit eye creates acute ocular hypertensive status. […] Another group of four animals with elevated IOP received saline only in right eyes. The left eyes of both groups were instilled topically with 30 μl saline eye drop.

[3] = Stability in buffer, plasma, and blood (LC-MS/MS); type: in vitro ADME, human; design: half-life: dose or concentration left out as unconfirmed
Method: Stability in buffer, plasma, and blood. Study was conducted by Absorption Systems. Studies were carried out in pH 7.4 phosphate buffer, mixed-gender human plasma (Lot #HMN330460), and mixed-gender human whole blood (Lot #HMN 381096). […] The plasma and blood were obtained from BioIVT and collected on sodium heparin. They were adjusted to pH 7.4 prior to initiating the experiments. […] Aliquots of the DMSO solution were dosed into 1 mL of matrix, which had been pre-warmed to 37° C., at a final concentration of […]. The vials were kept in a benchtop Thermomixer® for the duration of the experiment. Aliquots (100 μL) were taken at each time point (0, 15, 30, 60, and 120 minutes) and added to 96-well plates, which had been pre-filled with 300 μL of acetonitrile (ACN). Samples were stored at 4° C. until the end of the experiment. After the final time point was sampled, the plate was mixed and then centrifuged at 3,000 rpm for 10 minutes. Aliquots of the supernatant were removed, diluted 1:1 into distilled water, and analyzed by LC-MS/MS (Table 21). The peak area response ratio to internal standard (PARR) was compared to the PARR at time 0 to determine the percent of test article remaining at each time point. Half-lives were calculated using GraphPad software, fitting to a single-phase exponential decay equation.

Cl.Cl.NCC(C(=O)Nc1ccc2cnccc2c1)c1ccc(B(O)O)cc1 (stereo not drawn) [Compound 10•2HCl]
Effect on IOP after first application ([1]; 1 mg/ml (2.34 mM) in saline, day 8 after phenol injection): decrease of IOP to normal levels within 1 hour after application
Effect of subsequent twice daily application on IOP ([1]; 1 mg/ml twice daily, days 8 to 12): maintained normal IOP
Effect on viability (in words) (primary hTM cells): no effect on viability or membrane integrity
Duration of IOP effect ([2]; experiment 1, 1 mg/ml eye drop): 6 h
Effect on IOP compared to saline only group ([2]; experiment 1, 30 μl eye drop in saline (1 mg/ml, 2.34 mM) two hours after hyaluronate injection): decreased IOP significantly within 1 hour after application
Effect on IOP ([2]; experiment 2, compound 10.2HCl 1 mg/ml (2.34 mM), Netarsudil.2HCl 0.25 mg/ml (0.47 mM), 30 μL eye drop): reduced IOP significantly within 1 hour after eye drop application
Percent Remaining ([3]; Buffer pH 7.4, 37° C., 0 min): 100%
Percent Remaining ([3]; Buffer pH 7.4, 37° C., 15 min): 102%
Percent Remaining ([3]; Buffer pH 7.4, 37° C., 30 min): 97%
Percent Remaining ([3]; Buffer pH 7.4, 37° C., 60 min): 101%
Percent Remaining ([3]; Buffer pH 7.4, 37° C., 120 min): 93%
half-life ([3]; both sexes, pH 7.4, human Plasma, 37° C.): > 2 h
half-life ([3]; both sexes, pH 7.4, human whole Blood, 37° C.): > 2 h
Percent Remaining ([3]; human Plasma, 37° C., 0 min): 100%
Percent Remaining ([3]; human Plasma, 37° C., 15 min): 82%
Percent Remaining ([3]; human Plasma, 37° C., 30 min): 106%
Percent Remaining ([3]; human Plasma, 37° C., 60 min): 83%
Percent Remaining ([3]; human Plasma, 37° C., 120 min): 91%
Percent Remaining ([3]; human whole Blood, 37° C., 0 min): 100%
Percent Remaining ([3]; human whole Blood, 37° C., 15 min): 92%
Percent Remaining ([3]; human whole Blood, 37° C., 30 min): 87%
Percent Remaining ([3]; human whole Blood, 37° C., 60 min): 100%
Percent Remaining ([3]; human whole Blood, 37° C., 120 min): 115%
half-life ([3]; pH 7.4 phosphate buffer, Buffer pH 7.4, 37° C.): > 2 h
